Experimental findings from BindingDB's records for doi:10.7270/Q2V69MR5 (n/a, 1993) are described below.

This assay deals with T1, Neutrophil elastase (Homo sapiens, UniProt P08246).
T1 sequence (P08246 whole entry): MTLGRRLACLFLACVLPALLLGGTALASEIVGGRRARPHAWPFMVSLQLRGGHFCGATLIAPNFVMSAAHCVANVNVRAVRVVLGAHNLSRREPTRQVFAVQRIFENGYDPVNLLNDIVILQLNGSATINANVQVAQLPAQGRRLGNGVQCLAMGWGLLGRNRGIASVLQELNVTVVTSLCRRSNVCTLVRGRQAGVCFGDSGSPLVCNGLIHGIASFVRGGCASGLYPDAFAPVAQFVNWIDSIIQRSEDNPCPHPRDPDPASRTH
Nature of the assay: Compound was evaluated for the inhibitory activity against Human leukocyte elastase; time-dependent inhibition was not observed. The note with it: read-out: kon (M-1-s-1).

As for `CC[C@H]1C(=O)N(C(=O)NCc2ccccc2)[C@H]1Oc1ccc(C(=O)O)cc1`, the kon is 5.6 M⁻¹ s⁻¹.

The kon is the rate constant with which the complex forms.
